Results: patent US20180099931A1 (AbbVie S.à.r.l., priority 2016, published 2018)
Where two headings read alike, the source gives them in different places.

Biological target: T1, F508delCFTR (Homo sapiens, UniProt P13569, DEL508-508)
T1 construct: expressed in transfected cells; host or cells: CFBE41o- human lung-derived epithelial cells (CFBE4lo-F508delCFTR-HRP), doxycycline-inducible
Experiment: Cell Surface Expression-Horse Radish Peroxidase (CSE-HRP) Assay;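 on Maximum % activity (with co-corrector): co-corrector and positive control are both the same reference corrector at 2 µM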;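 on Maximum % activity (without co-corrector): percent of the 2 µM on-plate positive control corrector response above DMSO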
Assay type: cell-based
Conditions: for Emax / Maximum % activity (with co-corrector): maximum at any tested concentration, normalized to on-plate positive control; for Emax: read-out: Maximum % activity (without co-corrector)

[1] = test compound without co-corrector
[2] = test compound without co-corrector, read-out: EC50 (without co-corrector)
[3] = with co-corrector (2 μM of 3-[(2R,4R)-4-({[1-(2,2-difluoro-1,3-benzodioxol-5-yl)cyclopropyl]carbonyl}amino)-7-methoxy-3,4-dihydro-2H-chromen-2-yl]benzoic acid)
[4] = with co-corrector (2 μM of 3-[(2R,4R)-4-({[1-(2,2-difluoro-1,3-benzodioxol-5-yl)cyclopropyl]carbonyl}amino)-7-methoxy-3,4-dihydro-2H-chromen-2-yl]benzoic acid), read-out: EC50 (with co-corrector)

T1 sequence (P13569 with tags, fused parts or gaps DEL508-508): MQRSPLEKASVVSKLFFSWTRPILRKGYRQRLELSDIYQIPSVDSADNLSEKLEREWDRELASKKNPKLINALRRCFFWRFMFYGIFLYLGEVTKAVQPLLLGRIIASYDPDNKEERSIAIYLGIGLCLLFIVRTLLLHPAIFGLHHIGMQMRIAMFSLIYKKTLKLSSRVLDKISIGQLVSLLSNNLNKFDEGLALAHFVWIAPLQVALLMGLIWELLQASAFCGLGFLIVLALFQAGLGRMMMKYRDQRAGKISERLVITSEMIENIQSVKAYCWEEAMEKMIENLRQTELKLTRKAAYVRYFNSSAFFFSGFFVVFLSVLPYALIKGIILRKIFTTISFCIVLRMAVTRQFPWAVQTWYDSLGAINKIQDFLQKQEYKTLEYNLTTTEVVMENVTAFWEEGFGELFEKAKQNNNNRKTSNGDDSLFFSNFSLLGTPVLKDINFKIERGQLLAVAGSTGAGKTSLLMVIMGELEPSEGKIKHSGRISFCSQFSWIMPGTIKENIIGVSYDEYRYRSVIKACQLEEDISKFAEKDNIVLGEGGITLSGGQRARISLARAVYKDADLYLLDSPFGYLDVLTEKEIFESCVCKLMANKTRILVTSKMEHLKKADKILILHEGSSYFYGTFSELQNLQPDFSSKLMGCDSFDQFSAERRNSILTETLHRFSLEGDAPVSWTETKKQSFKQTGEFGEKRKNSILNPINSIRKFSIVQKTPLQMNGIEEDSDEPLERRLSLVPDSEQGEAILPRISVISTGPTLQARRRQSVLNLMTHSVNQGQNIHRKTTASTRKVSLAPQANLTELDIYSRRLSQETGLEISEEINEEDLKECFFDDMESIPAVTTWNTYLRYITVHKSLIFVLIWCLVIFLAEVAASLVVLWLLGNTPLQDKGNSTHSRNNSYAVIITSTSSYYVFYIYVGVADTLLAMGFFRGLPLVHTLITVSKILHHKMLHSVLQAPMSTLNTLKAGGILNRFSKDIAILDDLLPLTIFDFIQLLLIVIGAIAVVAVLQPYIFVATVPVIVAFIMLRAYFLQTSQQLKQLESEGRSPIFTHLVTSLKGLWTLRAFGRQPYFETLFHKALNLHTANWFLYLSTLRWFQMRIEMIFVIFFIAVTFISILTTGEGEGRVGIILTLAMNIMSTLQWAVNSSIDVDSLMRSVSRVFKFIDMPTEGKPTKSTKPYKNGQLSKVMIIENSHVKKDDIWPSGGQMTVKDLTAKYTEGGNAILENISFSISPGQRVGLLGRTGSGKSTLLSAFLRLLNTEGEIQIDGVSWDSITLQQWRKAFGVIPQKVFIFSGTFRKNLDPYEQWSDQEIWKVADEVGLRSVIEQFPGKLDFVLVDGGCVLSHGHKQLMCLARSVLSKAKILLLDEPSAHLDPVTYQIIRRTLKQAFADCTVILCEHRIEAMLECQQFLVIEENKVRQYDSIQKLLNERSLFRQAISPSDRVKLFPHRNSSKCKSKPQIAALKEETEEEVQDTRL

Row | SMILES | Emax [1] [%] | EC50 [2] [µM] | Maximum % activity (with co-corrector) [3] | EC50 [4] [µM]
1 | C=CCOC(=O)N1[C@H](C(=O)O)[C@@H](C(C)(C)C)[C@H](NCc2cc(C(C)(C)C)ccc2OC)[C@@H]1c1ccccc1 [II-391] | > 200 | 1 to 10 | +++ (≥350) | 1 to 10
2 | COc1ccc(C(C)(C)C)cc1CN[C@H]1[C@H](C(C)(C)C)[C@@H](C(=O)O)N(C(=O)OCC(C)(C)C)[C@H]1c1ccccc1 [II-392] | > 200 | < 1 | +++ (≥350) | < 1
3 | COc1ccc(C(C)(C)C)cc1CN[C@@H]1[C@@H](C(C)(C)C)[C@@H](C(=O)O)N(C(=O)[C@H](OC)c2ccccc2)[C@H]1c1ccccc1 [II-393] | < 100 | 1 to 10 | ++ (≥150 and <350) | 1 to 10
4 | COC1(CN[C@H]2[C@H](C(C)(C)C)[C@@H](C(=O)O)N(C(=O)C3CCCCC3)[C@H]2c2ccccc2)CCCCC1 [II-394] | 100 to 200 | 1 to 10 | +++ (≥350) | 1 to 10
5 | COc1ccc(C(F)(F)F)cc1CN[C@@H]1[C@@H](C(C)(C)C)[C@@H](C(=O)O)N(C(=O)[C@H](OC)c2ccccc2)[C@H]1c1ccccc1 [II-395] | < 100 | 1 to 10 | ++ (≥150 and <350) | 1 to 10
6 | COc1ccc(C(C)(C)C)cc1CN[C@H]1[C@H](C(C)(C)C)[C@@H](C(=O)O)N(C(=O)[C@@H](OC)c2ccc(F)c(F)c2)[C@H]1c1ccccc1 [II-396] | 100 to 200 | 1 to 10 | +++ (≥350) | 1 to 10
7 | COc1ccc(C(F)(F)F)cc1CN[C@H]1[C@H](C(C)(C)C)[C@@H](C(=O)O)N(C(=O)C2CCc3cc(C)ccc3O2)[C@H]1c1ccccc1 (some centres unmarked) [II-397] | 100 to 200 | 1 to 10 | +++ (≥350) | < 1
8 | COc1ccc(C(F)(F)F)cc1CN[C@H]1[C@H](C(C)(C)C)[C@@H](C(=O)O)N(C(=O)C2CCc3ccc(F)cc3O2)[C@H]1c1ccccc1 (some centres unmarked) [II-398] | < 100 | 1 to 10 | +++ (≥350) | 1 to 10
9 | COc1ccc(C(F)(F)F)cc1CN[C@H]1[C@H](C(C)(C)C)[C@@H](C(=O)O)N(C(=O)C(Oc2ccc(Cl)cc2)C(C)C)[C@H]1c1ccccc1 (some centres unmarked) [II-399] | 100 to 200 | < 1 | +++ (≥350) | < 1
10 | COc1ccc(C2(C#N)CC2)cc1CN[C@H]1[C@H](C(C)(C)C)[C@@H](C(=O)O)N(C(=O)C2CCCCC2)[C@H]1c1ccccc1 [II-400] | 100 to 200 | 1 to 10 | +++ (≥350) | 1 to 10
11 | COc1ccc(C(C)(C)C)cc1CN[C@H]1[C@H](C(C)(C)C)[C@@H](C(=O)O)N(C(=O)C2CCC(C)(C)C2)[C@H]1c1ccccc1 (some centres unmarked) [II-401] | > 200 | 1 to 10 | +++ (≥350) | < 1
12 | COc1ccc(C(C)(C)C)cc1CN[C@H]1[C@H](C(C)(C)C)[C@@H](C(=O)O)N(C(=O)C2COc3c(cccc3OC)C2)[C@H]1c1ccccc1 (some centres unmarked) [II-402] | > 200 | 1 to 10 | +++ (≥350) | < 1
13 | COc1cnc(C2CC3CCC2C3)cc1CN[C@H]1[C@H](C(C)(C)C)[C@@H](C(=O)O)N(C(=O)C2CCCCC2)[C@H]1c1ccccc1 (some centres unmarked) [II-403] | 100 to 200 | 1 to 10 | +++ (≥350) | 1 to 10
14 | COc1cnc(C2CCCCC2)cc1CN[C@H]1[C@H](C(C)(C)C)[C@@H](C(=O)O)N(C(=O)C2CCCCC2)[C@H]1c1ccccc1 [II-404] | < 100 | 1 to 10 | +++ (≥350) | 1 to 10
15 | COc1ncc(-c2ccccc2F)cc1CN[C@H]1[C@H](C(C)(C)C)[C@@H](C(=O)O)N(C(=O)C2CCCCC2)[C@H]1c1cccnc1N(C)C [II-405] | > 200 | 1 to 10 | +++ (≥350) | 1 to 10
16 | COc1ncc(-c2ccc(F)cc2F)cc1CN[C@H]1[C@H](C(C)(C)C)[C@@H](C(=O)O)N(C(=O)C2CCCCC2)[C@H]1c1cccnc1N(C)C [II-406] | 100 to 200 | < 1 | +++ (≥350) | < 1
17 | COc1cccc(OC)c1CN[C@H]1[C@H](C(C)(C)C)[C@@H](C(=O)O)N(C(=O)C2CCCCC2)[C@H]1c1ccccc1 [II-407] | 100 to 200 | 1 to 10 | +++ (≥350) | 1 to 10
18 | COc1ccc(C(F)(F)F)nc1CN[C@H]1[C@H](C(C)(C)C)[C@@H](C(=O)O)N(C(=O)C2CCCCC2)[C@H]1c1ccccc1 [II-408] | 100 to 200 | 1 to 10 | +++ (≥350) | 1 to 10
19 | COc1ncc(-c2ccc(F)cc2C)cc1CN[C@H]1[C@H](C(C)(C)C)[C@@H](C(=O)O)N(C(=O)C2CCCCC2)[C@H]1c1cccnc1N(C)C [II-409] | 100 to 200 | 1 to 10 | +++ (≥350) | < 1
20 | COc1ncc(-c2ccc(C)cc2)cc1CN[C@H]1[C@H](C(C)(C)C)[C@@H](C(=O)O)N(C(=O)C2CCCCC2)[C@H]1c1cccnc1N(C)C [II-410] | 100 to 200 | < 1 | +++ (≥350) | < 1
21 | COc1ccc(C(C)(C)C)cc1CN[C@H]1[C@H](C(C)(C)C)[C@@H](C(=O)O)N(C(=O)C2=C(F)CCCC2)[C@H]1c1ccccc1 [II-411] | > 200 | 1 to 10 | +++ (≥350) | < 1
22 | COc1ccc(C(C)(C)C)cc1CN[C@@H]1[C@@H](C(C)(C)C)[C@@H](C(=O)O)N(C(=O)C2CCCCC2)[C@H]1c1ccccc1 [II-412] | < 100 | 1 to 10 | ++ (≥150 and <350) | 1 to 10
23 | COc1ccc(C(F)(F)F)cc1CN[C@@H]1[C@@H](C(C)(C)C)[C@@H](C(=O)O)N(C(=O)C2CCCCC2)[C@H]1c1ccccc1 [II-413] | < 100 | 1 to 10 | ++ (≥150 and <350) | 1 to 10
24 | COc1ccc(C(C)(C)C)cc1CN[C@H]1[C@H](C(C)(C)C)[C@@H](C(=O)O)N(C(=O)C(Oc2ccccc2C)C(C)C)[C@H]1c1ccccc1 (some centres unmarked) [II-415] | > 200 | 1 to 10 | +++ (≥350) | < 1
25 | COc1cnc(-c2ccc(C)cc2F)cc1CN[C@H]1[C@H](C(C)(C)C)[C@@H](C(=O)O)N(C(=O)C2CCCCC2)[C@H]1c1ccccc1 [II-416] | 100 to 200 | < 1 | +++ (≥350) | < 1
26 | COc1cnc(-c2ccccc2F)cc1CN[C@H]1[C@H](C(C)(C)C)[C@@H](C(=O)O)N(C(=O)C2CCCCC2)[C@H]1c1ccccc1 [II-417] | 100 to 200 | 1 to 10 | +++ (≥350) | 1 to 10
27 | COc1cccc(-c2cc(CN[C@H]3[C@H](C(C)(C)C)[C@@H](C(=O)O)N(C(=O)C4CCCCC4)[C@H]3c3ccccc3)c(OC)cn2)c1 [II-418] | < 100 | 1 to 10 | +++ (≥350) | 1 to 10
28 | COc1ccc(C(C)(C)C)cc1CN[C@H]1[C@H](C(C)(C)OC)[C@@H](C(=O)O)N(C(=O)OC(C)C)[C@H]1c1ccccc1 [II-419] | > 200 | 1 to 10 | +++ (≥350) | 1 to 10
29 | COCC1(c2ccc(OC)c(CN[C@H]3[C@H](C(C)(C)C)[C@@H](C(=O)O)N(C(=O)C4CCCCC4)[C@H]3c3ccccc3)c2)CC1 [II-420] | 100 to 200 | 1 to 10 | +++ (≥350) | 1 to 10
